{
  "source": "patent US20070248955A1",
  "about": "“Use Of Genetic Polymorphisms To Predict Drug-Induced Hepatotoxicity” (NOVARTIS AG, priority 2003, published 2007)",
  "assay": "Hepatotoxicity (fold increases of AST or ALT over the upper limit of normal) in the phase II clinical trial",
  "assay_type": "in vivo, human",
  "experimental": "Relevant genetic polymorphisms were identified in a multicenter, randomized, double-masked placebo-controlled dose finding phase II trial of N-benzoyl-staurosporine, which was conducted in subjects with diabetic macular edema. The safety of N-benzoyl-staurosporine was evaluated in the subjects and additional pharmacokinetic information on was collected. […] Subjects were flagged as having experienced hepatotoxicity if either aspartate aminotransferase (AST) or alanine aminotransferase (ALT) had fold elevations over the upper limit of normal on visit 3, 4 or 5.\nThe diagnosis of hepatotoxicity can be accomplished using assays of serum enzyme levels. Serum enzyme assays indicative of liver dysfunction are well-known to those of skill in the medical arts and routine in hospital laboratories. For a definition of hepatotoxicity based upon serum levels of aspartate transaminase (AST) and used in the EXAMPLE: The definition of hepatotoxicity used in this analysis was based on fold increases in serum aspartate transaminase or alanine aminotransferase over the upper limit of normal (ULN) on visits 3, 4 or 5. The upper limit of normal for serum aspartate transaminase is 42 U/L for ages 3-64 and 55 U/L for ages 65 and up; for serum alanine aminotransferase the upper limit of normal is 48 U/L (Smithkline Beecham Clinical Laboratories Reference Alert Ranges). While an elevation of either enzyme at visit 3, 4 or 5 constituted hepatotoxicity, transaminase elevations were disregarded during subsequent visits when the drug was not being administered. Furthermore, subjects who had elevated liver function tests at baseline (visit 2) were not flagged as having experienced hepatotoxicity, regardless of the elevation in their enzyme levels following administration of the drug. Nine subjects were flagged as having experienced hepatotoxicity. Of these, six consented to clinical pharmacogenetic analysis.\nHepatotoxicity and N-benzoyl-staurosporine metabolism. The relationship between the occurrence of hepatotoxicity in the clinical trial and the dose of N-benzoyl-staurosporine administered was examined. The percentage of subjects per dose group that experienced hepatotoxicity are as follows: 3% for 50 mg/day, 8% for 100 mg/day and 14% of those that took 150 mg/day. While most of the subjects that experienced liver toxicity took the highest dose of N-benzoyl-staurosporine, the association between of N-benzoyl-staurosporine dose and hepatotoxicity is not significant (p=0.09; Fisher's Exact).",
  "data": [
    {"compound": "CO[C@@H]1[C@H](N(C)C(=O)c2ccccc2)C[C@H]2O[C@]1(C)n1c3ccccc3c3c4c(c5c6ccccc6n2c5c31)C(=O)NC4", "note": "[N-benzoyl-staurosporine]", "values": [
      {"measurement": "percentage of subjects per dose group that experienced hepatotoxicity", "setting": "50 mg/day, subjects with diabetic macular edema", "result": 3, "unit": "%"},
      {"measurement": "percentage of subjects per dose group that experienced hepatotoxicity", "setting": "100 mg/day, subjects with diabetic macular edema", "result": 8, "unit": "%"},
      {"measurement": "percentage of subjects per dose group that experienced hepatotoxicity", "setting": "150 mg/day, subjects with diabetic macular edema", "result": 14, "unit": "%"},
      {"measurement": "Hepatotoxicity Yes", "setting": "CPG samples (83 subjects, all arms incl. 0 mg/day)", "result": 7, "unit": "%"},
      {"measurement": "Hepatotoxicity Yes", "setting": "Trial samples (139 subjects, all arms incl. 0 mg/day)", "result": 6, "unit": "%"},
      {"measurement": "subjects that experienced hepatotoxicity", "setting": "of the 140 subjects enrolled in the clinical trial (all arms)", "result": "nine"},
      {"measurement": "safety profile", "setting": "phase II trial, subjects with diabetic macular edema", "result": "good safety profile"}
    ]}
  ]
}
